Data taken from US10704076B2, “Multi-tiered high through-put screen for compounds effective against bacterial biofilm and compounds effective for inhibiting and eradicating bacterial biofilm” (University of Cincinnati, priority 2013, dated 2020).

Tests used:
P. aeruginosa biofilm [1] = assay: HTS live biofilm assay (resazurin metabolic activity); format: cell-based; conditions: Pseudomonas aeruginosa, 10 point dose-response 0.1-50 μM
Source text: (§1) Each HTS tier consisted of: (i) primary screening, (ii) confirmation screening and (iii) dose-response curve screening. Each tier of HTS included three distinct biological process assays. The first assay was an optical density measurement of bacteria growth in the presence of each compound reported as a total bacteria growth. In the second assay, resazurin solution was used as an indicator of metabolic activity to measure the live bacteria in the biofilms, reported as live biofilm. The final assay was crystal violet staining, which indicated the amount of biofilm formation and the effect of each compound on this process, reported as total biofilm formation.
(§2) Briefly, stationary phase bacteria grown in L-broth were diluted 1:200 into fresh L-broth and 50 μM of each test compound. After 20-24 hours, the optical density (OD560) of each suspension was measured using Zeiss Plate::Vision with a 560 BP filter (560 nm, 2.5% light intensity, 1 mm focus to bottom of plate, and exposure time of 100 ms). To measure bacterial viability in the biofilm, 50 μl of a 5 mg/ml resazurin solution in L-broth was added to each well after washing 3 times with 50 μl of PBS. The plates were then incubated at 37° C. for 30 or 180 min for A. baumannii and P. aeruginosa biofilms, respectively. Fluorescence was measured using Zeiss Plate::Vision at excitation and emission wavelengths of 535 and 580 nm, 100 ms exposure time, 2.5% intensity and a 2 mm focus to the bottom of the biofilms. To assess biofilm formation, plates were washed 3 times with PBS and then 50 μl of 0.01% of crystal violet was added to each well to assess bacterial biofilm formation as described in a similar borosilicate tube assay by O'Toole and Kolter. After incubation at room temperature for 30 min and removal of the crystal violet solution by washing with PBS, 95% ethanol was added to solubilize the crystal violet followed by incubation for 20 min at room temperature. Finally, the optical density of each plate was determined using measured by Zeiss Plate::Vision using the same settings used to measure total bacterial growth. These 3 steps were used in each of the three tiers for the HTS process: (i) single point primary screening at 10 μM, (ii) triplicate confirmation of hits from (i) at 10 μM and (iii) determination of AC50 values in 10 point dose-response at a concentration range of 0.1-50 μM) in hits from (ii). The AC50 represents the concentration of compound that inhibits 50% of bacterial growth, bacterial viability, or biofilm formation. Genedata Screener® Assay Analyzer Software (Ver. 9.0.0 Standard) was used to analyze data from all assay tiers. Compounds with an AC50 of less than 20 μM in one of the biological assays from the dose response screen were subject to additional investigation.

P. aeruginosa biofilm [2] = assay: HTS total biofilm formation assay (crystal violet staining); format: cell-based, Pseudomonas aeruginosa; conditions: for AC50: 10 point dose-response 0.1-50 μM
Source text: as §1, §2

S. epidermidis biofilm [3] = assay: CLSM, co-culture of bacteria with compound (inhibition of biofilm formation); format: cell-based, Staphylococcus epidermidis; conditions: for killing of residential bacteria, co-culture (CLSM, in words): 10 μM; for Co-culture of bacteria with compound: Killing: CLSM, 10 μM compound, 18 hrs, Y / —
Description: (§3) Broad spectrum agents (effective against all three bacterial species) and single agent compounds identified as HTS hits were investigated with CLSM confirmation of inhibition of biofilm formation (culture of bacteria with compounds) or killing of bacteria residing within an established biofilm (compound addition after culturing biofilm). To evaluate inhibition of P. aeruginosa biofilms, bacteria were sub-cultured into 10% L-broth and grown at 37° C. until the OD600 reached 0.25. The bacteria were further diluted 1:100 into a modified 0.5×M63 minimum media (50 mM KH2PO4, 7.5 mM (NH4)2SO4, 9 μM FeSO4, 0.5% casamino acids, 0.2% glucose, and 1 mM MgSO4). A. baumannii biofilms were also grown in 10% L-broth until the OD600 reached 0.05 but diluted 1:10 into 5% L-broth media. S. epidermidis biofilm cultures were grown. Briefly, the bacteria were grown in TSB until the OD600 reached 0.75, and a 1:100 dilution of the bacteria was sub-cultured into phosphate buffered saline (PBS). All of the biofilm bacterial cultures were grown in 96-well plate chambers (MatTek Corp., Ashland, Mass.) in the presence of 10 μM of each compound or DMSO as a control and incubated for 18 hrs at 37° C. To investigate the ability of compounds to kill bacteria within pre-existing biofilms, biofilms were grown under the same conditions, but without test compound. These biofilms were washed once with PBS and incubated an additional 24 hr at 37° C. in PBS containing 300 μM of each compound. All biofilm cultures were then washed twice with 100 μL of PBS and stained using the LIVE/DEAD® BacLight™ Bacterial Viability Kit (Invitrogen). Finally, biofilm images were obtained using a Zeiss LSM510 META Confocal Microscope (Carl Zeiss, Inc., Germany). A 488 nm laser was used in conjunction with a Plan-Apochromat 100×/1.4 Oil DIC objective. Z-stacks were 8 bit and measured 127.3 μm×127.3 μm×16.0 μm in size. The filters used were 505-530 and 620-680 IR, as the excitation and emission wavelengths for red fluorescence are 490 nm and 635 nm, respectively, and 480 nm and 500 nm for green fluorescence. Three dimensional images were generated using the “Projection” ability on LSM Image Browser software (v.1.4.0.121) or Zeiss LSM image browser software version 3.5 (Carl Zeiss, Inc., Germany), and Live/Dead calculations were conducted based upon these images using MacBiophotonics ImageJ following the guidelines in the cell counting guide by C. Labno {Rasband, 1997-2011 #25; Labno, #2} at the University of Chicago Integrated Light Microscopy Core. The thickness of the biofilm was calculated using Comstat software. A hit was defined as a >50% dead to live ratio.
(§4) The CLSM experiment was performed in one or two or all bacteria used in this study depending on its activity. For the validation of HTS hits, 10 μM of compound was added to each bacterial suspension and the resulting biofilm stained with LIVE/DEAD® BacLight™ Bacterial Viability Kit. The images were analyzed to determine the live and dead ratios of biofilm bacteria, the thickness of biofilms, and structural attributes of biofilms.

A. baumannii biofilm = assay: as above; format: cell-based, Acinetobacter baumannii; conditions: for killing of residential bacteria, co-culture (CLSM, in words): 10 μM; for Co-culture of bacteria with compound: Killing: Y / —
Description: as §3, §4

S. epidermidis biofilm [4] = assay: HTS total biofilm formation assay (crystal violet staining); format: cell-based; conditions: Staphylococcus epidermidis, dose-response
Source text: as §1, §2

Row | Structure (SMILES) | AC50 (P. aeruginosa biofilm [1]) | AC50 (P. aeruginosa biofilm [2]; Pseudomonas aeruginosa) | killing of residential bacteria, co-culture (CLSM, in words) (S. epidermidis biofilm [3]) | Co-culture of bacteria with compound: Killing (S. epidermidis biofilm [3]) | killing of residential bacteria, co-culture (CLSM, in words) (A. baumannii biofilm) | Co-culture of bacteria with compound: Killing (A. baumannii biofilm; CLSM, 10 μM compound, 18 hrs) | AC50 (S. epidermidis biofilm [4]) | AC50 (P. aeruginosa biofilm [2]) | HTS assay results: Biofilm Formation (P. aeruginosa biofilm [2]; Y / —) | Co-culture of bacteria with compound: Inhibit biofilm formation (A. baumannii biofilm; CLSM, 10 μM compound, 18 hrs)
1 | Cn1sc(Cl)c(C#N)c1=O [Compound 3, 5-chloro-2-methyl-3-oxo-1,2-thiazole-4-carbonitrile] | 13.4 µM | 3.07 µM | killed residential bacteria | Y (A hit was defined as a >50% dead to live ratio) | killed residential bacteria | Y (A hit was defined as a >50% dead to live ratio) | 8.84 µM |  |  | 
2 | NC(=S)N1CCN(c2cc3c(cc2F)c(=O)c(C(=O)O)cn3C2CC2)CC1 [Compound 7, 7-(4-carbamothioylpiperazin-1-yl)-1-cyclopropyl-6-fluoro-4-oxoquinoline-3-carboxylic acid] | 0.38 µM | 7.81 µM | killed residential bacteria | Y (A hit was defined as a >50% dead to live ratio) | killed residential bacteria | Y (A hit was defined as a >50% dead to live ratio) | 1.12 µM |  |  | 
3 | O=C(O)c1cn(C2CC2)c2c(F)c(N3CC(O)C3)c(F)cc2c1=O [Compound 8, 1-cyclopropyl-6,8-difluoro-7-(3-hydroxyazetidin-1-yl)-4-oxoquinoline-3-carboxylic acid] | 57 µM |  | killed residential bacteria | Y (A hit was defined as a >50% dead to live ratio) | killed residential bacteria | Y (A hit was defined as a >50% dead to live ratio) | < 0.1 µM | 10.3 µM | —* (AC50 higher than 20 μM) | 
4 | O=C(O)c1cn(C2CC2)c2c(F)c(-c3ccncc3)c(F)cc2c1=O [Compound 11, 7-(4-pyridyl)-1-cyclopropyl-6,8-difluoro-4-oxoquinoline-3-carboxylic acid] | 9.6 µM | 7.4 µM | killed | Y (A hit was defined as a >50% dead to live ratio) |  |  | < 0.1 µM |  |  | inhibited biofilm formation
